Target: T1, GCS (Canis lupus familiaris, UniProt A0A8I3MXG6)
T1 construct: endogenous in cells; host or cells: MDCK (Madin-Darby canine kidney) cells, whole-cell lysate
T1 sequence (A0A8I3MXG6 1-394): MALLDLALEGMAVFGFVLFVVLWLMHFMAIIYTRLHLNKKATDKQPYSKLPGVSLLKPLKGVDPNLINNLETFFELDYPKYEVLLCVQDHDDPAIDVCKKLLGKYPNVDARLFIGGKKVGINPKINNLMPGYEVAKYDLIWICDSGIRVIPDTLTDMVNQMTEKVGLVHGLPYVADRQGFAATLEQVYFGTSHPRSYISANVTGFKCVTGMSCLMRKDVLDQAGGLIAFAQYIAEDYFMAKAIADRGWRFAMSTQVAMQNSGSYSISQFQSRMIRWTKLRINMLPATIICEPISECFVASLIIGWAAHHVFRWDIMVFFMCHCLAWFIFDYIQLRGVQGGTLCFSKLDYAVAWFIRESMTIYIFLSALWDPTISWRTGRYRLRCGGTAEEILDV
Experiment: GCS enzymatic assay (MDCK cell lysate, NBD-ceramide to glucosylceramide, LC/MS)
Assay type: biochemical, canine
Conditions: Table 2, the table does not say which of the assays; for Data Range (% inhibition): class symbols D, E, F, NA (not active); for IC50: class symbols A, B, C, read-out: Data Range (IC50 values)
Outline: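 IC50 or percent inhibition came from LC/MS/MS (ESI+, MRM) of NBD-ceramide and glucosylceramide, with tolbutamide as internal standard. The reaction used MDCK (canine) cell lysate as the enzyme source and was ended with acetonitrile. Mock wells received 0.1% DMSO.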

SMILES	Data Range (% inhibition)	IC50 [nM]
O=C(N[C@H](CN1CCCC1)[C@H](O)c1ccc2c(c1)OCCO2)[C@H]1CCN(C2Cc3ccccc3C2)C1 [Compound 55B, (S)-1-(2,3-dihydro-1H-inden-2-yl)-N-((1R,2R)-1-(2,3-dihydrobenzo[b][1,4]dioxin-6-yl)-1-hydroxy-3-(pyrrolidin-1-yl)propan-2-yl)pyrrolidine-3-carboxamide]	F (1-49% (or less than 50%))	
O=C(N[C@H](CN1CCCC1)[C@H](O)c1ccc2c(c1)OCCO2)[C@@H]1CCN(c2ccnc(OC3CC3)c2)C1 [Compound 56, (R)-1-(2-cyclopropoxypyridin-4-yl)-N-((1R,2R)-1-(2,3-dihydrobenzo[b][1,4]dioxin-6-yl)-1-hydroxy-3-(pyrrolidin-1-yl)propan-2-yl)pyrrolidine-3-carboxamide]	F (1-49% (or less than 50%))	
O=C(N[C@H](CN1CCCC1)[C@H](O)c1ccc2c(c1)OCCO2)C1CCN(c2ccnc(OC3CC3)c2)C1 (stereo partly drawn) [Compound 56D, 1-(2-cyclopropoxypyridin-4-yl)-N-((1R,2R)-1-(2,3-dihydrobenzo[b][1,4]dioxin-6-yl)-1-hydroxy-3-(pyrrolidin-1-yl)propan-2-yl)pyrrolidine-3-carboxamide]	F (1-49% (or less than 50%))	
O=C(N[C@H](CN1CCCC1)[C@H](O)c1ccc2c(c1)OCCO2)[C@H]1CCN(c2ccnc(OC3CC3)c2)C1 [Compound 56E, (S)-1-(2-cyclopropoxypyridin-4-yl)-N-((1R,2R)-1-(2,3-dihydrobenzo[b][1,4]dioxin-6-yl)-1-hydroxy-3-(pyrrolidin-1-yl)propan-2-yl)pyrrolidine-3-carboxamide]	F (1-49% (or less than 50%))	
O=C(N[C@H](CN1CCCC1)[C@H](O)c1ccc(OC2CC2)c(Cl)c1)[C@@H]1CCN(c2ccc(Cl)cn2)C1 [Compound 57, (R)-N-((1R,2R)-1-(3-chloro-4-cyclopropoxyphenyl)-1-hydroxy-3-(pyrrolidin-1-yl)propan-2-yl)-1-(5-chloropyridin-2-yl)pyrrolidine-3-carboxamide]	F (1-49% (or less than 50%))	
O=C(N[C@H](CN1CCCC1)[C@H](O)c1ccc(OC2CC2)c(Cl)c1)[C@H]1CCN(c2ccc(Cl)cn2)C1 [Compound 57A, (S)-N-((1R,2R)-1-(3-chloro-4-cyclopropoxyphenyl)-1-hydroxy-3-(pyrrolidin-1-yl)propan-2-yl)-1-(5-chloropyridin-2-yl)pyrrolidine-3-carboxamide]		1 to 30
O=C(N[C@H](CN1CCCC1)[C@H](O)c1ccc2c(c1)OCCO2)[C@@H]1CCN(c2ccc(OC3CC3)nc2)C1 [Compound 58, (R)-1-(6-cyclopropoxypyridin-3-yl)-N-((1R,2R)-1-(2,3-dihydrobenzo[b][1,4]dioxin-6-yl)-1-hydroxy-3-(pyrrolidin-1-yl)propan-2-yl)pyrrolidine-3-carboxamide]	E (50-74% (or less than 75%))	
O=C(N[C@H](CN1CCCC1)[C@H](O)c1ccc2c(c1)OCCO2)[C@H]1CCN(c2ccc(OC3CC3)nc2)C1 [Compound 58D, (S)-1-(6-cyclopropoxypyridin-3-yl)-N-((1R,2R)-1-(2,3-dihydrobenzo[b][1,4]dioxin-6-yl)-1-hydroxy-3-(pyrrolidin-1-yl)propan-2-yl)pyrrolidine-3-carboxamide]	F (1-49% (or less than 50%))	
O=C(N[C@H](CN1CCCC1)[C@H](O)c1ccc(OC2COC2)c(Cl)c1)[C@@H]1CCN(c2ccc(Cl)cc2)C1 [Compound 59, (R)-N-((1R,2R)-1-(3-chloro-4-(oxetan-3-yloxy)phenyl)-1-hydroxy-3-(pyrrolidin-1-yl)propan-2-yl)-1-(4-chlorophenyl)pyrrolidine-3-carboxamide]	F (1-49% (or less than 50%))	
O=C(N[C@H](CN1CCCC1)[C@H](O)c1ccc(OCCN2CCC2)c(Cl)c1)[C@@H]1CCN(c2ccc(Cl)cc2)C1 [Compound 60, (R)-N-((1R,2R)-1-(4-(2-(azetidin-1-yl)ethoxy)-3-chlorophenyl)-1-hydroxy-3-(pyrrolidin-1-yl)propan-2-yl)-1-(4-chlorophenyl)pyrrolidine-3-carboxamide]		1 to 30
O=C(N[C@H](CN1CCCC1)[C@H](O)c1ccc(OCCN2CCC2)c(Cl)c1)[C@H]1CCN(c2ccc(Cl)cc2)C1 [Compound 60A, (S)-N-((1R,2R)-1-(4-(2-(azetidin-1-yl)ethoxy)-3-chlorophenyl)-1-hydroxy-3-(pyrrolidin-1-yl)propan-2-yl)-1-(4-chlorophenyl)pyrrolidine-3-carboxamide]	NA (not active—a negative value was generated for % inhibition)	
Cn1ncc2ccc(N3CC[C@@H](C(=O)N[C@H](CN4CCCC4)[C@H](O)c4ccc5c(c4)OCCO5)C3)cc21 [Compound 61, (R)-N-((1R,2R)-1-(2,3-dihydrobenzo[b][1,4]dioxin-6-yl)-1-hydroxy-3-(pyrrolidin-1-yl)propan-2-yl)-1-(1-methyl-1H-indazol-6-yl)pyrrolidine-3-carboxamide]	NA (not active—a negative value was generated for % inhibition)	
Cn1ncc2ccc(N3CCC(C(=O)N[C@H](CN4CCCC4)[C@H](O)c4ccc5c(c4)OCCO5)C3)cc21 (stereo partly drawn) [Compound 61C, N-((1R,2R)-1-(2,3-dihydrobenzo[b][1,4]dioxin-6-yl)-1-hydroxy-3-(pyrrolidin-1-yl)propan-2-yl)-1-(1-methyl-1H-indazol-6-yl)pyrrolidine-3-carboxamide]		1 to 30
Cn1ncc2ccc(N3CC[C@H](C(=O)N[C@H](CN4CCCC4)[C@H](O)c4ccc5c(c4)OCCO5)C3)cc21 [Compound 61D, (S)-N-((1R,2R)-1-(2,3-dihydrobenzo[b][1,4]dioxin-6-yl)-1-hydroxy-3-(pyrrolidin-1-yl)propan-2-yl)-1-(1-methyl-1H-indazol-6-yl)pyrrolidine-3-carboxamide]		1 to 30
O=C(N[C@H](CN1CCCC1)[C@H](O)c1ccc(OC2COC2)nc1)[C@@H]1CCN(c2ccc(Cl)cc2)C1 [Compound 62, (R)-1-(4-chlorophenyl)-N-((1R,2R)-1-hydroxy-1-(6-(oxetan-3-yloxy)pyridin-3-yl)-3-(pyrrolidin-1-yl)propan-2-yl)pyrrolidine-3-carboxamide]	NA (not active—a negative value was generated for % inhibition)	
CN1CCc2ccc(N3CC[C@@H](C(=O)N[C@H](CN4CCCC4)[C@H](O)c4ccc5c(c4)OCCO5)C3)cc2C1 [Compound 63, (R)-N-((1R,2R)-1-(2,3-dihydrobenzo[b][1,4]dioxin-6-yl)-1-hydroxy-3-(pyrrolidin-1-yl)propan-2-yl)-1-(2-methyl-1,2,3,4-tetrahydroisoquinolin-7-yl)pyrrolidine-3-carboxamide]	F (1-49% (or less than 50%))	
CN1CCc2ccc(N3CCC(C(=O)N[C@H](CN4CCCC4)[C@H](O)c4ccc5c(c4)OCCO5)C3)cc2C1 (stereo partly drawn) [Compound 63C, N-((1R,2R)-1-(2,3-dihydrobenzo[b][1,4]dioxin-6-yl)-1-hydroxy-3-(pyrrolidin-1-yl)propan-2-yl)-1-(2-methyl-1,2,3,4-tetrahydroisoquinolin-7-yl)pyrrolidine-3-carboxamide]	F (1-49% (or less than 50%))	
CN1CCc2ccc(N3CC[C@H](C(=O)N[C@H](CN4CCCC4)[C@H](O)c4ccc5c(c4)OCCO5)C3)cc2C1 [Compound 63D, (S)-N-((1R,2R)-1-(2,3-dihydrobenzo[b][1,4]dioxin-6-yl)-1-hydroxy-3-(pyrrolidin-1-yl)propan-2-yl)-1-(2-methyl-1,2,3,4-tetrahydroisoquinolin-7-yl)pyrrolidine-3-carboxamide]	NA (not active—a negative value was generated for % inhibition)	
CC1(C)CCc2cc(N3CCC(C(=O)N[C@H](CN4CCCC4)[C@H](O)c4ccc5c(c4)OCCO5)C3)ccc2O1 (stereo partly drawn) [Compound 64, N-((1R,2R)-1-(2,3-dihydrobenzo[b][1,4]dioxin-6-yl)-1-hydroxy-3-(pyrrolidin-1-yl)propan-2-yl)-1-(2,2-dimethylchroman-6-yl)pyrrolidine-3-carboxamide]	F (1-49% (or less than 50%))	
O=C(N[C@H](CN1CCCC1)[C@H](O)c1ccc(OC2CC2)c(F)c1)[C@@H]1CCN(c2ccc(Cl)cc2)C1 [Compound 65, (R)-1-(4-chlorophenyl)-N((1R,2R)-1-(4-cyclopropoxy-3-fluorophenyl)-1-hydroxy-3-(pyrrolidin-1-yl)propan-2-yl)pyrrolidine-3-carboxamide]		1 to 30
O=C(N[C@H](CN1CCCCC1)[C@H](O)c1ccc(OC2CC2)c(Cl)c1)[C@@H]1CCN(c2ccc(Cl)cc2)C1 [Compound 66, (R)-N-((1R,2R)-1-(3-chloro-4-cyclopropoxyphenyl)-1-hydroxy-3-(piperidin-1-yl)propan-2-yl)-1-(4-chlorophenyl)pyrrolidine-3-carboxamide]	F (1-49% (or less than 50%))	
O=C(N[C@H](CN1CCCC1)[C@H](O)c1ccc(OC2CC2)c(Cl)c1)[C@@H]1CCN(c2ccc3ccccc3c2)C1 [Compound 67, (R)-N-((1R,2R)-1-(3-chloro-4-cyclopropoxyphenyl)-1-hydroxy-3-(pyrrolidin-1-yl)propan-2-yl)-1-(naphthalen-2-yl)pyrrolidine-3-carboxamide]		1 to 30

Source: US10239832B2, “N-(1-hydroxy-3-(pyrrolidinyl)propan-2-yl)pyrrolidine-3-carboxamide derivatives as glucosylceramide synthase inhibitors” (BIOMARIN PHARMACEUTICAL INC., priority 2013, dated 2019)
